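48-hour exposure; five concentrations; linearly interpolated endpoints. Definition used: TGI = concentration required for complete inhibition of growth.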 Where a SMILES comes first, the peptide text is derived from it. [ ]: non-standard residue; d: D form. The star is where a group is joined. ξ: configuration not given here. dThr(3ξ) = CC(O)[C@@H](N)C(=O)O; dNMeL = CN[C@H](CC(C)C)C(=O)O; OBn = c1ccc(CO*)cc1; ξLac = CC(O)C(=O)O
Legend:
Assay in all cases: NCI-60 cell line screen, 48 h
[1] = system: MDA-MB-435
[2] = system: HCT-15 colon
[3] = system: ACHN renal
[4] = system: EKVX NSCLC
[5] = system: MDA-MB-231 breast
[6] = system: SNB-19 CNS
[7] = system: SK-MEL-2 melanoma
[8] = system: UO-31 renal
[9] = system: NCI-H23 lung
[10] = system: UACC-257 melanoma
[11] = system: SK-MEL-28 melanoma
[12] = system: COLO 205 colon
[13] = system: RPMI-8226 leukemia
[14] = system: NCI-H522 lung
[15] = system: SW-620 colon
[16] = system: PC-3 prostate
[17] = system: SK-MEL-5 melanoma
[18] = system: KM12 colon
[19] = system: MCF7 breast
[20] = system: HOP-62 NSCLC

Question: Which TGI [1] does the source give for `C[C@]12CCC(=O)C=C1CC[C@@H]1[C@@H]2CC[C@]2(C)C(=O)[C@H](n3ccnc3)C[C@@H]12` here?
Answer: The TGI was over 100 µM.

Question: What about the TGI [2] of the same compound?
Answer: The TGI was over 100 µM.

Question: What about the TGI [3] of the same compound?
Answer: Its TGI is over 100 µM.

Question: What about the TGI [4] of the same compound?
Answer: The TGI was over 100 µM.

Question: What about the TGI [5] of the same compound?
Answer: The TGI was over 100 µM.

Question: What about the TGI [6] of the same compound?
Answer: The TGI was over 100 µM.

Question: What about the TGI [7] of the same compound?
Answer: Its TGI is over 100 µM.

Question: And the TGI [8]?
Answer: Its TGI is over 100 µM.

Question: And the TGI [9]?
Answer: The TGI was over 100 µM.

Question: What about the TGI [10] of the same compound?
Answer: Its TGI is over 100 µM.

Question: And the TGI [11]?
Answer: Its TGI is over 100 µM.

Question: And the TGI [12]?
Answer: Its TGI is over 100 µM.

Question: What about the TGI [13] of the same compound?
Answer: Its TGI is over 100 µM.

Question: What about the TGI [14] of the same compound?
Answer: Its TGI is over 100 µM.

Question: And the TGI [15]?
Answer: The TGI was over 100 µM.

Question: What about the TGI [16] of the same compound?
Answer: Its TGI is over 100 µM.

Question: And the TGI [17]?
Answer: Its TGI is over 100 µM.

Question: And the TGI [18]?
Answer: The TGI was over 100 µM.

Question: What about the TGI [19] of the same compound?
Answer: Its TGI is over 100 µM.

Question: For `CC(=O)OC(C)[C@@H](NC(=O)[C@@H](CC(C)C)N(C)C(=O)[C@@H]1CCCN1C(=O)C(C)O)C(=O)OCc1ccccc1` (stereo partly specified) (H-[ξLac]P[dNMeL][dThr(3ξ)](Ac)-OBn), which TGI [1] is on record?
Answer: Its TGI is over 100 µM.

Question: What about the TGI [2] of the same compound?
Answer: Its TGI is over 100 µM.

Question: And the TGI [3]?
Answer: The TGI was over 100 µM.

Question: What about the TGI [4] of the same compound?
Answer: The TGI was over 100 µM.

Question: What about the TGI [5] of the same compound?
Answer: Its TGI is over 100 µM.

Question: And the TGI [6]?
Answer: The TGI was over 100 µM.

Question: And the TGI [7]?
Answer: The TGI was over 100 µM.

Question: What about the TGI [8] of the same compound?
Answer: Its TGI is over 100 µM.

Question: What about the TGI [9] of the same compound?
Answer: Its TGI is over 100 µM.

Question: And the TGI [10]?
Answer: The TGI was over 100 µM.

Question: What about the TGI [11] of the same compound?
Answer: The TGI was over 100 µM.

Question: And the TGI [12]?
Answer: Its TGI is over 100 µM.

Question: And the TGI [13]?
Answer: Its TGI is over 100 µM.

Question: And the TGI [14]?
Answer: The TGI was over 100 µM.

Question: What about the TGI [15] of the same compound?
Answer: The TGI was over 100 µM.

Question: What about the TGI [16] of the same compound?
Answer: Its TGI is over 100 µM.

Question: What about the TGI [17] of the same compound?
Answer: Its TGI is over 100 µM.

Question: What about the TGI [18] of the same compound?
Answer: The TGI was over 100 µM.

Question: What about the TGI [19] of the same compound?
Answer: The TGI was over 100 µM.

Question: What about the TGI [20] of the same compound?
Answer: The TGI was over 100 µM.

Question: What does the source list for `c1ccc(C2C3=C(CCCC3)Nc3nc4cc5ccccc5cc4n32)cc1` (stereo unspecified)?
Answer: TGI [1]: > 100 µM; TGI [2]: > 100 µM; TGI [3]: > 100 µM; TGI [4]: > 100 µM; TGI [5]: > 100 µM; TGI [6]: > 100 µM; TGI [7]: > 100 µM; TGI [8]: > 100 µM; TGI [9]: > 100 µM; TGI [10]: > 100 µM; TGI [11]: > 100 µM; TGI [12]: > 100 µM; TGI [13]: > 100 µM; TGI [14]: > 100 µM; TGI [15]: > 100 µM; TGI [16]: > 100 µM; TGI [17]: > 100 µM; TGI [18]: > 100 µM; TGI [19]: > 100 µM

Question: What does the source list for `Cc1cn(C2CC(O)C(Cn3cc(Cn4ncc(=O)[nH]c4=O)nn3)O2)c(=O)[nH]c1=O` (stereo unspecified)?
Answer: TGI [1]: > 100 µM; TGI [2]: > 100 µM; TGI [3]: > 100 µM; TGI [4]: > 100 µM; TGI [5]: > 100 µM; TGI [6]: > 100 µM; TGI [7]: > 100 µM; TGI [8]: > 100 µM; TGI [9]: > 100 µM; TGI [10]: > 100 µM; TGI [11]: > 100 µM; TGI [12]: > 100 µM; TGI [13]: > 100 µM; TGI [14]: > 100 µM; TGI [15]: > 100 µM; TGI [16]: > 100 µM; TGI [17]: > 100 µM; TGI [18]: > 100 µM; TGI [19]: > 100 µM; TGI [20]: > 100 µM

Question: `COC(=O)[C@@H]1C[C@H]([Se]c2ccccc2)CN1S(=O)(=O)c1ccc(C)cc1` was tested. Which TGI [1] did it give?
Answer: The TGI was over 100 µM.

Question: And the TGI [2]?
Answer: The TGI was over 100 µM.

Question: What about the TGI [3] of the same compound?
Answer: Its TGI is over 100 µM.

Question: What about the TGI [4] of the same compound?
Answer: The TGI was over 100 µM.

Question: What about the TGI [5] of the same compound?
Answer: Its TGI is over 100 µM.

Question: And the TGI [6]?
Answer: The TGI was over 100 µM.

Question: And the TGI [7]?
Answer: Its TGI is over 100 µM.

Question: And the TGI [8]?
Answer: Its TGI is over 100 µM.

Question: And the TGI [9]?
Answer: Its TGI is over 100 µM.

Question: What about the TGI [10] of the same compound?
Answer: The TGI was over 100 µM.

Question: What about the TGI [11] of the same compound?
Answer: Its TGI is over 100 µM.

Question: What about the TGI [12] of the same compound?
Answer: The TGI was over 100 µM.

Question: What about the TGI [13] of the same compound?
Answer: Its TGI is over 100 µM.

Question: And the TGI [14]?
Answer: The TGI was over 100 µM.

Question: And the TGI [15]?
Answer: The TGI was over 100 µM.

Question: What about the TGI [16] of the same compound?
Answer: The TGI was over 100 µM.

Question: What about the TGI [17] of the same compound?
Answer: The TGI was over 100 µM.

Question: And the TGI [18]?
Answer: The TGI was over 100 µM.

Question: What about the TGI [19] of the same compound?
Answer: Its TGI is over 100 µM.

Question: What about the TGI [20] of the same compound?
Answer: The TGI was over 100 µM.

Question: Which results are given for `Cc1ccc2c(c1)C(=O)C(Cc1ccccc1C(=O)O)C2` (stereo unspecified)?
Answer: TGI [1]: > 100 µM; TGI [2]: > 100 µM; TGI [3]: > 100 µM; TGI [4]: > 100 µM; TGI [5]: > 100 µM; TGI [6]: > 100 µM; TGI [7]: > 100 µM; TGI [8]: > 100 µM; TGI [9]: > 100 µM; TGI [10]: > 100 µM; TGI [11]: > 100 µM; TGI [12]: > 100 µM; TGI [13]: > 100 µM; TGI [14]: > 100 µM; TGI [15]: > 100 µM; TGI [16]: > 100 µM; TGI [17]: > 100 µM; TGI [18]: > 100 µM; TGI [19]: > 100 µM; TGI [20]: > 100 µM

Question: Which results are given for `N#Cc1c(-c2ccccc2)c(N=Nc2ccc(F)cc2)c(=O)n2c1[nH]c1ccccc12`?
Answer: TGI [1]: > 100 µM; TGI [2]: > 100 µM; TGI [3]: > 64.6 µM; TGI [4]: 41.3 µM; TGI [5]: > 50.9 µM; TGI [6]: 33.5 µM; TGI [7]: > 100 µM; TGI [8]: 20.6 µM; TGI [9]: > 75.7 µM; TGI [10]: > 100 µM; TGI [11]: > 100 µM; TGI [12]: 13 µM; TGI [13]: 12.9 µM; TGI [14]: 14.7 µM; TGI [15]: > 100 µM; TGI [16]: > 35.2 µM; TGI [17]: 4.94 µM; TGI [18]: 65 µM; TGI [19]: > 100 µM; TGI [20]: 29.3 µM

Question: `CCOC(=O)C(Cc1c2ccccc2cc2ccccc12)(NC(C)=O)C(=O)OCC` was tested. Which TGI [1] did it give?
Answer: Its TGI is over 100 µM.

Question: What about the TGI [2] of the same compound?
Answer: Its TGI is over 100 µM.

Question: What about the TGI [3] of the same compound?
Answer: The TGI was over 100 µM.

Question: And the TGI [4]?
Answer: The TGI was over 100 µM.

Question: And the TGI [5]?
Answer: Its TGI is over 100 µM.

Question: What about the TGI [6] of the same compound?
Answer: The TGI was over 100 µM.

Question: What about the TGI [7] of the same compound?
Answer: Its TGI is over 100 µM.

Question: What about the TGI [8] of the same compound?
Answer: Its TGI is over 100 µM.

Question: And the TGI [9]?
Answer: The TGI was over 100 µM.

Question: And the TGI [10]?
Answer: The TGI was over 100 µM.

Question: What about the TGI [11] of the same compound?
Answer: Its TGI is over 100 µM.

Question: And the TGI [12]?
Answer: Its TGI is over 100 µM.

Question: And the TGI [13]?
Answer: The TGI was over 100 µM.

Question: And the TGI [14]?
Answer: The TGI was over 100 µM.

Question: And the TGI [15]?
Answer: Its TGI is over 100 µM.

Question: What about the TGI [16] of the same compound?
Answer: Its TGI is over 100 µM.

Question: What about the TGI [17] of the same compound?
Answer: The TGI was over 100 µM.

Question: What about the TGI [18] of the same compound?
Answer: The TGI was over 100 µM.

Question: What about the TGI [19] of the same compound?
Answer: The TGI was over 100 µM.

Question: What about the TGI [20] of the same compound?
Answer: Its TGI is over 100 µM.

Question: What does the source list for `OCC1OC(Oc2cc(O)cc(/C=C\c3ccc(O)cc3)c2)C(O)C(O)C1O` (stereo unspecified)?
Answer: TGI [1]: > 100 µM; TGI [2]: > 100 µM; TGI [3]: > 100 µM; TGI [4]: > 100 µM; TGI [5]: > 100 µM; TGI [6]: > 100 µM; TGI [7]: > 100 µM; TGI [8]: > 100 µM; TGI [10]: > 100 µM; TGI [11]: > 100 µM; TGI [13]: > 100 µM; TGI [14]: > 100 µM; TGI [15]: > 100 µM; TGI [16]: > 100 µM; TGI [17]: > 100 µM; TGI [18]: > 100 µM; TGI [19]: > 100 µM; TGI [20]: > 100 µM

— PubChem BioAssay (NCI)
